One compound from patent US11939330B1, “Pyrido[3,4-b]indole-6-carboxylic acid compounds as CK2 inhibitors” (KING FAISAL UNIVERSITY, priority 2023, dated 2024) can be followed below.

pIC50: −log10 of the molar value.

One test deals with PC3 (prostate). Description: In vitro cytotoxic activity (MTT) assay, PC3. The class given is cell-based. The settings on record: Homo sapiens, Prostate cell; PC3 (prostate) cells, exposed for 96 hours; read-out: IC50, concentration of compound eliciting a 50% inhibition of cell proliferation. As for the experimental part:
(§1) Compounds 1-12 were screened for their in vitro cytotoxic activity utilizing a 3-(4,5-dimethyl-thiazol-2-yl)-2,5-diphenyltetrazolium bromide (MTT) assay against selected cancer human cell lines consisting of PC3 (prostate), HCT116 (colon), A375 (melanoma), H1299 (lung), MIAPaCa-2 (pancreas), HL60 (leukemia), MCF7 (breast), MDA-MB-231 (breast) (T. Mosmann, J. Immunol. Meth., 1983, 65, 55-63). The cells were cultured at 37° C. in RMPI1640 medium supplemented with 10% fetal bovine serum, 50 IU/mL penicillin, and 50 μg/mL streptomycin in a 5% CO2 incubator. All cells were sub-cultured 3 times/week by trypsinisation. Viable cells were seeded and allowed to adhere for 12 h before a test drug was added in 96-well plates at an initial density of 1.0×10^5 cells/mL. Tumour cell lines were separately exposed to various concentrations of the tested compounds followed by incubation at a temperature of 37° C. during 96 h inside a medium of fresh RMPI 1640. Cells were subsequently incubated at 37° C. using MTT at 0.5 mg/mL during 4 h. After removal of supernatant, formazan crystals were dissolved in isopropanol and the optical density was measured at 570 nm. CX-4945 was used as a positive control.

A further test has as its system HCT116 (colon). Description: In vitro cytotoxic activity (MTT) assay, HCT116. It is filed as cell-based. The settings on record: Homo sapiens, HCT-116; HCT116 (colon) cells, exposed for 96 hours; read-out: IC50, concentration of compound eliciting a 50% inhibition of cell proliferation. As for the experimental part:
as §1

Another test relates to A375 (melanoma). Description: In vitro cytotoxic activity (MTT) assay, A375. It is filed as cell-based. Particulars: Homo sapiens, A-375; A375 (melanoma) cells, exposed for 96 hours; read-out: IC50, concentration of compound eliciting a 50% inhibition of cell proliferation. As for the experimental part: as §1
The next test has as its system H1299 (lung). Description: In vitro cytotoxic activity (MTT) assay, H1299. The class given is cell-based. Particulars: Homo sapiens, NCI-H1299; H1299 (lung) cells, exposed for 96 hours; read-out: IC50, concentration of compound eliciting a 50% inhibition of cell proliferation. On the procedure: as §1
The next test has as its system MIAPaCa-2 (pancreas). Description: In vitro cytotoxic activity (MTT) assay, MIAPaCa-2. It is filed as cell-based. Particulars: Homo sapiens, MIA PaCa-2; MIAPaCa-2 (pancreas) cells, exposed for 96 hours; read-out: IC50, concentration of compound eliciting a 50% inhibition of cell proliferation. As for the experimental part:
as §1

The next test concerns HL60 (leukemia). The experiment in a line: In vitro cytotoxic activity (MTT) assay, HL60. It is filed as cell-based. Particulars: Homo sapiens, HL-60; HL60 (leukemia) cells, exposed for 96 hours; read-out: IC50, concentration of compound eliciting a 50% inhibition of cell proliferation. On the procedure: as §1
In the next test the test system is MCF7 (breast). The experiment in a line: In vitro cytotoxic activity (MTT) assay, MCF7. It is filed as cell-based. The settings on record: Homo sapiens; MCF7 (breast) cells, exposed for 96 hours; read-out: IC50, concentration of compound eliciting a 50% inhibition of cell proliferation. As for the experimental part: as §1
The next test deals with MDA-MB-231 (breast). The experiment in a line: In vitro cytotoxic activity (MTT) assay, MDA-MB-231. It is filed as cell-based. The settings on record: Homo sapiens; MDA-MB-231 (breast) cells, exposed for 96 hours; read-out: IC50, concentration of compound eliciting a 50% inhibition of cell proliferation. As for the experimental part: as §1
Another test addresses T1, recombinant human CK2 (Homo sapiens, UniProt P68400).
T1 construct: purchased Millipore
The experiment in a line: CK2 Kinase Assay (33P-ATP, substrate peptide RRRDDDSDDD). It is filed as biochemical. Particulars: final ATP concentration 15 μM, 10 min at 30° C.; read-out: protein kinase CK2 activity IC50. On the procedure: CK2 Kinase Assay was conducted using the protocol as described in Pierre F. et al; J. Med. Chem. 2011, 54, 635-654. The tested compounds in aqueous solution were added at a volume of 10 μL to a reaction mixture comprising 10 μL of assay dilution buffer (ADB; 20 mM MOPS, pH 7.2, 25 mM β-glycerol phosphate, 5 mM EGTA, 1 mM sodium orthovanadate, and 1 mM dithiothreitol), 10 μL of substrate peptide (RRRDDDSDDD, dissolved in ADB at a concentration of 1 mM), 10 μL of recombinant human CK2 (RROP-holoenzyme, 25 ng dissolved in ADB; Millipore). Reactions were initiated by the addition of 10 μL of ATP solution (90% 75 mMMgCl2, 75 μM ATP (final ATP concentration:15 μM) dissolved in ADB; 10% [7-33P] ATP (stock 1 mCi/100 L; 3000 Ci/mmol (Perkin-Elmer) and maintained for 10 min at 30° C. The reactions were quenched with 100 μL of 0.75% phosphoric acid and then transferred to and filtered through a phosphor cellulose filter plate (Millipore). After washing each well five times with 0.75% phosphoric acid, the plate was dried under vacuum for 5 min and, following the addition of 15 μL of scintillation fluid to each well, the residual radioactivity was measured using a Wallac […] counter. The IC50 values were derived from eight concentrations of test inhibitors.

T1 sequence (P68400 whole entry): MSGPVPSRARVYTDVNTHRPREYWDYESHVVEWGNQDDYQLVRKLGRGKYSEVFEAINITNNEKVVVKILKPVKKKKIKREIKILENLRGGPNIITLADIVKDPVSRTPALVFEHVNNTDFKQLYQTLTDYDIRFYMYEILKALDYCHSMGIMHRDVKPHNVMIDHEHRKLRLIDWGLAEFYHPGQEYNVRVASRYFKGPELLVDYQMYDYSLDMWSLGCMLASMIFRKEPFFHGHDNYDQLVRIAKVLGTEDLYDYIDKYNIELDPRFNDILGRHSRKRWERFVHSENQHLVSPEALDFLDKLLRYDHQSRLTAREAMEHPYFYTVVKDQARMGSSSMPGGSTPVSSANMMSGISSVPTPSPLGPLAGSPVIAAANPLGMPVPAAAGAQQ
T1 sequence (P67870 whole entry partner): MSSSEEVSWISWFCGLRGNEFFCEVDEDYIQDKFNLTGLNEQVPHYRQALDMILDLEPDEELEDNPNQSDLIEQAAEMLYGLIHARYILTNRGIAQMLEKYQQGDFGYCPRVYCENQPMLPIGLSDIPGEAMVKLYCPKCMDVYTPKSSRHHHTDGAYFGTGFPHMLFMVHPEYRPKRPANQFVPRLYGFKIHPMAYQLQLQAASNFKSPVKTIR

With `O=C(O)c1ccc2c(c1)c1ccncc1n2C(=O)c1cccc(Cl)c1` [Compound 7, 9-(3-chlorobenzoyl)-9H-pyrido[3,4-b]indole-6-carboxylic acid], the pIC50 in the test with PC3 (prostate) is 5.80; in the test on HCT116 (colon), 5.62; in the test with A375 (melanoma), 5.41; in the test with H1299 (lung), 5.82; with MIAPaCa-2 (pancreas) it was 5.72; in the test with HL60 (leukemia), 5.74. In addition, the pIC50 in the test on MCF7 (breast) is 5.33; with MDA-MB-231 (breast), 5.41; on recombinant human CK2, 7.29.
